Measured values: US12668611B2, “Cell-penetrating peptide and use thereof” (IMNEWRUN, INC., priority 2020, dated 2026)
Peptide text beside a SMILES is read from it.

How the values were obtained:
[1] = test system: hCMEC/D3 cells, which are human blood-brain barrier cells; assay: In vitro cell permeability analysis (FITC fluorescence imaging, Cytation 5); type: cell-based; settings: peptides linked to FITC, 4 μM, 2 hours, FIG. 1
Experimental: The present inventors performed in vitro cell permeability analysis on a total of 12 candidate peptides synthesized in Example 1 above. Specifically, hCMEC/D3 cells, which are human blood-brain barrier cells, were seeded in a 96-well plate at 18,000 cells/well, and incubated overnight at 37° C. under CO2 conditions in a endothelial cell growth medium (EGM), which is an […], until the cells reached 80% to 90% of the plate area. Subsequently, the 12 candidate peptides linked to FITC prepared in Example 1-2 and FITC alone, a negative control, were diluted in the medium to 4 μM to prepare an amount to be treated by 100 μl per well. Subsequently, the culture solution was removed from the cell culture plate by suction, and the peptide was diluted and treated with the solution prepared in advance, and then cultured at 37° C. under CO2 conditions for 2 hours. […] After incubation, DAPI and GFP fluorescence were image read by using a Cytation 5 equipment, and the cell nucleus was parcellated with DAPI by image processing. Subsequently, a value of 20 μM of FITC around the cell nucleus was measured, divided by DAPI to obtain a mean-FITC value, and the value was corrected with a value of FITC experimental group, a negative control group, to calculate permeability in the blood-brain barrier cells. […]

[2] = test system: hCMEC/D3 cell line; assay: Comparative analysis of cell permeation effect through flow cytometry; type: cell-based, human; settings: 10 μM, 2 hours, p<0.0001, FIG. 4
Experimental: First, with respect to the transpep-1-FITC and angiopep-2-FITC prepared in Example 1-2, an amount of fluorescence inflow into a single cell was identified and quantified through flow cytometry. Specifically, an hCMEC/D3 cell line was aliquoted at 15,000 cells/well using an EGM culture medium containing 2% bovine calf serum (BCS), and 24 hours later, cells were treated with each of the two peptides at a concentration of 10 μM, and then were incubated for 2 hours at 37° C., under CO2 conditions. Thereafter, the cells were washed with 1×PBS, and then were separated from the bottom of the plate by incubating for 3 minutes after 1.1% trypsinase-EDTA (TE) was added, and then an EGM cell culture solution of about 3 times the amount of TE was added, and the sample was centrifuged at 100 rpm for 5 minutes. Next, the supernatant was removed by suction, and the cells were resuspended in 250 μl of 1×PBS, and then transferred to a BD Falcon 12×75 mm Tube with Cell Strainer Cap, and inflow of fluorescence according to each peptide was analyzed by flow cytometry.

[3] = test system: C57BL/6 mice; assay: Comparative analysis of in vivo blood-brain barrier (BBB) permeability (two-photon microscopy); set-up: species or system mouse; settings: 15 mg/kg tail vein, imaging for 90 minutes; FIG. 5A-5F
Experimental: Specifically, in order to perform in vivo real-time imaging using a two photon microscopy, operations to install a cranial window were performed in living mice (C57BL/6). Before making the cranial window, inhalation anesthesia was induced with 3% isoflurane in the mice, and the body temperature of the mice was maintained at 36.5° C. to 37.5° C. by using a heating pad. After induction of anesthesia, the concentration of isoflurane was adjusted to 1.5% to maintain anesthesia. In addition, to confirm the degree of maintenance of anesthesia, heart rate and SpO2 were confirmed in real time. Afterwards, craniotomy was performed by using a dental drill in order that the cranial window has a diameter of 3 mm at the skull coordinates of ML, +2.5 mm, and AP, −1.5 mm. After the skull was removed by craniotomy, the brain was covered with a cover glass having a diameter of 4 mm, and the cover glass was adhered by using a cyanoacrylic bond. Next, a head frame, capable of fixing the mouse's head under a two-photon microscope, was attached so that the cover glass would come to the center. After a first bonding of the cover glass and the frame by using the bond, a second bonding was performed and all exposed skulls were covered from the border of the cover glass with dental resin so that imaging could be performed by using a water immersion lens. […]

Row | Compound | cell permeability (FITC fluorescence) [1] | fluorescence intensity (inflow into single cell) compared to angiopep-2-FITC [2] | amount delivered to the extravascular area compared to angiopep-2-FITC [3] | fluorescence in the intravascular region (in vivo stability) compared to angiopep-2-FITC [3]
1 | GHHERLKSDEWSVTSG (transpep-1) | confirmed to have cell permeability | significantly higher |  | 
2 | CC(C)C[C@H](NC(=O)[C@H](CCCNC(=N)N)NC(=O)[C@H](CCC(=O)O)NC(=O)[C@H](Cc1c[nH]cn1)NC(=O)[C@H](Cc1c[nH]cn1)NC(=O)CNC(=S)Nc1ccc2c(c1)C(=O)OC21c2ccc(O)cc2Oc2cc(O)ccc21)C(=O)N[C@@H](CCCCN)C(=O)N[C@@H](CO)C(=O)N[C@@H](CC(=O)O)C(=O)N[C@@H](CCC(=O)O)C(=O)N[C@@H](Cc1c[nH]c2ccccc12)C(=O)N[C@@H](CO)C(=O)N[C@H](C(=O)N[C@H](C(=O)N[C@@H](CO)C(=O)NCC(=O)O)[C@@H](C)O)C(C)C [transpep-1-FITC] (HELM PEPTIDE1{[O=C1OC2(c3ccc(O)cc3Oc3cc(O)ccc32)c2ccc(NC(=S)[*:2])cc21].G.H.H.E.R.L.K.S.D.E.W.S.V.T.S.G}$$$$V2.0) |  |  | greater | higher in vivo stability
